Experimental data: PubChem BioAssay (NCI)
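Compound exposure: 48 hours, 5 concentrations, 96-well plates. GI50 = concentration required for 50% inhibition of growth. TGI denotes the concentration required for complete inhibition of growth.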

Tests used:
Experiment in all cases: growth of human tumour cells (NCI), 48 h
[1] = system: NCI-H522 lung
[2] = system: MOLT-4 leukemia
[3] = system: TK-10 renal
[4] = system: EKVX NSCLC
[5] = system: CCRF-CEM leukemia
[6] = system: UACC-257 melanoma
[7] = system: LOX IMVI melanoma
[8] = system: SF-295 CNS
[9] = system: HCC-2998 colon
[10] = system: SK-OV-3 ovarian

Row | Compound | GI50 [1] | TGI [1] | GI50 [2] | TGI [2] | GI50 [3] | TGI [3] | GI50 [4] | TGI [4] | GI50 [5] | TGI [5] | GI50 [6] | TGI [6] | GI50 [7] | TGI [7] | GI50 [8] | TGI [8] | GI50 [9] | TGI [9] | TGI [10]
1 | ClCc1c(Cl)c(Cl)c(Cl)c(CCl)c1Cl | 1.51 µM | 3.12 µM | 2.41 µM | 5.86 µM | 1.56 µM | 2.89 µM | 1.81 µM | 4.15 µM | 0.841 µM | 3.28 µM | 1.84 µM | 3.45 µM | 1.46 µM | 3.13 µM | 9.07 µM | 27.7 µM | 1.78 µM | 3.45 µM | 
2 | COC(=O)c1cc(C#Cc2cc(OC)ccc2OC)ccc1OC |  | > 100 µM |  | 70 µM |  | > 100 µM |  | > 100 µM | 36.8 µM | > 100 µM |  | > 100 µM |  | > 100 µM |  |  |  | > 100 µM | > 100 µM
3 | CN(C)c1ccc(N=Nc2ccccn2)cc1 |  | > 100 µM |  | 40.9 µM |  | > 100 µM |  | > 100 µM |  | 91.2 µM |  | 25.7 µM |  | > 100 µM |  | > 100 µM |  | 59.7 µM | > 100 µM
4 | COc1cc[n+](C)cc1 |  | > 100 µM |  | > 100 µM |  |  |  | > 100 µM |  | > 100 µM |  | > 100 µM |  | > 100 µM |  | > 100 µM |  | > 100 µM | > 100 µM
5 | COc1ccc(NC(=O)/C(CC2=Nc3ccc([N+](=O)[O-])cc3NC2O)=N\NC(=O)C[N+](C)(C)C)c(OC)c1 (stereo not drawn) |  | > 100 µM |  | > 100 µM |  | > 100 µM |  | > 100 µM |  | > 100 µM |  | > 100 µM |  | > 100 µM |  | > 100 µM |  | > 100 µM | > 100 µM
6 | Cc1nc2ccccc2c(=O)[nH]1 |  | > 100 µM |  | > 100 µM |  | > 100 µM |  | > 100 µM |  | > 100 µM |  | > 100 µM |  | > 100 µM |  | > 100 µM |  | > 100 µM | > 100 µM
7 | N#Cc1c(NC(=S)NC(=O)c2ccccc2)nc2c(c1-c1ccccc1)CCCC2 |  |  |  | > 100 µM |  | > 100 µM |  |  |  | > 100 µM |  | > 100 µM |  | > 100 µM |  | > 100 µM |  |  | 86.3 µM
8 | C=C1C(=O)OC2C1CC(O)/C(C)=C\CCC1(C)OC21 (stereo not drawn) |  | 33 µM |  | 79.3 µM |  | > 100 µM |  | > 100 µM |  | > 100 µM |  | > 100 µM |  | 78.7 µM |  | > 100 µM |  | 79.9 µM | > 100 µM
9 | COc1ccc(-c2cc(N3CCN(c4ccccc4)CC3)c(C#N)c(=O)o2)cc1 |  |  |  | > 100 µM |  | 58 µM |  | > 100 µM |  | > 100 µM |  | > 100 µM |  | > 100 µM |  | 59.5 µM |  | > 100 µM | 
10 | CCC(C)C(=O)c1c(O)c(C/C=C(\C)CCC=C(C)C)c(O)c2c(C(O)CC)cc(=O)oc12 (stereo not drawn) |  | 5.73 µM |  | 3.94 µM |  | 13.1 µM |  | 10.1 µM |  | 3.44 µM |  | 6.84 µM |  | 12.6 µM |  | 7.82 µM |  | 2.09 µM | 10.8 µM
11 | O=[N+]([O-])c1cn[n+]([O-])c2ccccc12 |  |  |  |  |  | 25.8 µM |  | 26.1 µM |  |  |  | 26.2 µM |  | 20.9 µM |  | 17.6 µM |  | 3.44 µM | 26.3 µM
12 | CCO/N=[N+](\[O-])N(CC)CC |  | > 100 µM |  | > 100 µM |  | > 100 µM |  | > 100 µM |  | > 100 µM |  | > 100 µM |  | > 100 µM |  | > 100 µM |  | > 100 µM | > 100 µM
13 | Cc1cn(Cc2ccccc2CCl)c(=O)[nH]c1=O |  | 23.9 µM |  | > 100 µM |  | 33.8 µM |  | 33.2 µM |  | > 100 µM |  | 31.1 µM |  |  |  | 30.4 µM |  | 28.8 µM | > 100 µM
14 | COC(=O)/C=c1/c2ccccc2n2nc3ccccc3c12 |  | > 100 µM |  | 35.3 µM |  | > 100 µM |  | > 100 µM |  | > 100 µM |  | > 100 µM |  | > 100 µM |  | > 100 µM |  | > 100 µM | 61.3 µM
